Here are results for 24 compounds from patent US8202885B2, “Bridged six-membered ring compounds” (Actelion Pharmaceuticals Ltd., priority 2007, dated 2012).

A value given as a limit tells only on which side of the number the result lay.

The test system of this assay is human Cav3.1 Cav3.2 or Cav3.3 channel. The assay is described as follows: In vitro assay T channel (FLIPR calcium fluorescence). The class given is cell-based. The settings on record: HEK293 cells expressing human Cav3.1, Cav3.2 or Cav3.3; 10 mM Ca2+-induced fluo-4 fluorescence; determined up to 10 μM; read-out: T channel antagonistic activity IC50. In a few lines: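 IC50 (nM) is the antagonist concentration halving the area under the fluorescence peak evoked by 10 mM Ca2+, relative to vehicle, with testing up to 10 μM. Fluo-4-loaded HEK293 cells expressing each human Cav3 subtype received compound 3 min before Ca2+ addition (TEA-based buffer, pH 7.2); signal monitored 8 min at 2 s intervals.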
For `COc1ccc2[nH]c(CCCN(C)CC[C@]3(OC(=O)C(C)C)C[C@H]4CC[C@@H]3C=C4c3ccccc3)nc2c1` (relative stereo) [Example 29A, rac-Isobutyric acid (1R*,2R*,4R*)-2-(2-{[3-(5-methoxy-1H-benzoimidazol-2-yl)-propyl]-methyl-amino}-ethyl)-5-phenyl-bicyclo[2.2.2]oct-5-en-2-yl ester], the IC50 – broadly, the concentration needed to halve the response being measured – was determined as 4.51 µM. Take `COc1ccc(C)c2nc(CCCN(C)CC[C@]3(O)C[C@H]4CC[C@@H]3C=C4c3ccccc3)[nH]c12` (relative stereo) [Example 30, rac-(1R*,2R*,4R*)-2-(2-{[3-(7-Methoxy-4-methyl-1H-benzoimidazol-2-yl)-propyl]-methyl-amino}-ethyl)-5-phenyl-bicyclo[2.2.2]oct-5-en-2-ol]: the IC50 is 1.78 µM. With `COc1ccc(C)c2nc(CCCN(C)CC[C@]3(OC(=O)C(C)C)C[C@H]4CC[C@@H]3C=C4c3ccccc3)[nH]c12` (relative stereo) [Example 30A, rac-Isobutyric acid (1R*,2R*,4R*)-2-(2-{[3-(7-methoxy-4-methyl-1H-benzoimidazol-2-yl)-propyl]-methyl-amino}-ethyl)-5-phenyl-bicyclo[2.2.2]oct-5-en-2-yl ester], the IC50 is 1.25 µM.

With `CCOc1cccc2nc(CCCN(C)CC[C@]3(O)C[C@H]4CC[C@@H]3C=C4c3ccccc3)[nH]c12` (relative stereo) [Example 31, rac-(1R*,2R*,4R*)-2-(2-{[3-(7-Ethoxy-1H-benzoimidazol-2-yl)-propyl]-methyl-amino}-ethyl)-5-phenyl-bicyclo[2.2.2]oct-5-en-2-ol], the IC50 worked out at 2.58 µM. Regarding `CCOc1cccc2nc(CCCN(C)CC[C@]3(OC(=O)C(C)C)C[C@H]4CC[C@@H]3C=C4c3ccccc3)[nH]c12` (relative stereo) [Example 31A, rac-Isobutyric acid (1R*,2R*,4R*)-2-(2-{[3-(7-ethoxy-1H-benzoimidazol-2-yl)-propyl]-methyl-amino}-ethyl)-5-phenyl-bicyclo[2.2.2]oct-5-en-2-yl ester], the IC50 was determined as 2.6 µM. Regarding `COc1cccc2nc(CCN(C)CC[C@]3(O)C[C@H]4CC[C@@H]3C=C4c3ccccc3)[nH]c12` (relative stereo) [Example 32, rac-(1R*,2R*,4R*)-2-(2-{[2-(7-Methoxy-1H-benzoimidazol-2-yl)-ethyl]-methyl-amino}-ethyl)-5-phenyl-bicyclo[2.2.2]oct-5-en-2-ol], the IC50 is 1.48 µM. For `COc1cccc2nc(CCN(C)CC[C@]3(OC(=O)C(C)C)C[C@H]4CC[C@@H]3C=C4c3ccccc3)[nH]c12` (relative stereo) [Example 32A, rac-Isobutyric acid (1R*,2R*,4R*)-2-(2-{[2-(7-methoxy-1H-benzoimidazol-2-yl)-ethyl]-methyl-amino}-ethyl)-5-phenyl-bicyclo[2.2.2]oct-5-en-2-yl ester], the IC50 was 3.39 µM. Turning to `CC(C)Oc1cccc2nc(CCCN(C)CC[C@]3(O)C[C@H]4CC[C@@H]3C=C4c3ccccc3)[nH]c12` (relative stereo) [Example 33, rac-(1R*,2R*,4R*)-2-(2-{[3-(7-Isopropoxy-1H-benzoimidazol-2-yl)-propyl]-methyl-amino}-ethyl)-5-phenyl-bicyclo[2.2.2]oct-5-en-2-ol], the IC50 was 2.99 µM. As for `CC(C)Oc1cccc2nc(CCCN(C)CC[C@]3(OC(=O)C(C)C)C[C@H]4CC[C@@H]3C=C4c3ccccc3)[nH]c12` (relative stereo) [Example 33A, rac-Isobutyric acid (1R*,2R*,4R*)-2-(2-{[3-(7-isopropoxy-1H-benzoimidazol-2-yl)-propyl]-methyl-amino}-ethyl)-5-phenyl-bicyclo[2.2.2]oct-5-en-2-yl ester], the figure is 1.66 µM.

Consider `CN(CCCc1nc2cccc(O)c2[nH]1)CC[C@]1(O)C[C@H]2CC[C@@H]1C=C2c1ccccc1` (relative stereo) [Example 34, rac-(1R*,2R*,4R*)-2-(3-{[2-(2-Hydroxy-5-phenyl-bicyclo[2.2.2]oct-5-en-2-yl)-ethyl]-methyl-amino}-propyl)-3H-benzoimidazol-4-ol], for which the IC50 came to 2.56 µM.

`CC(C)C(=O)Oc1cccc2nc(CCCN(C)CC[C@]3(OC(=O)C(C)C)C[C@H]4CC[C@@H]3C=C4c3ccccc3)[nH]c12` (relative stereo) [Example 34A, rac-Isobutyric acid (1R*,2R*,4R*)-2-(2-{[3-(7-isobutyryloxy-1H-benzoimidazol-2-yl)-propyl]-methyl-amino}-ethyl)-5-phenyl-bicyclo[2.2.2]oct-5-en-2-yl ester]: the IC50 amounted to 4.33 µM. For `CC(C)C(=O)O[C@@]1(CCN(C)CCCc2nc3cccc(O)c3[nH]2)C[C@H]2CC[C@@H]1C=C2c1ccccc1` (relative stereo) [Example 35A, rac-Isobutyric acid (1R*,2R*,4R*)-2-(2-{[3-(7-hydroxy-1H-benzoimidazol-2-yl)-propyl]-methyl-amino}-ethyl)-5-phenyl-bicyclo[2.2.2]oct-5-en-2-yl ester] the value was 1.33 µM; for `COc1cccc2[nH]c(CCCN(C)CC[C@]3(O)C[C@H]4CCC[C@@H]3C=C4c3ccccc3)nc12` (relative stereo) [Example 36, rac-(1R*,5R*,6R*)-6-(2-{[3-(4-Methoxy-1H-benzoimidazol-2-yl)-propyl]-methyl-amino}-ethyl)-8-phenyl-bicyclo[3.2.2]non-8-en-6-ol], 1.33 µM; for `COc1cccc2[nH]c(CCCN(C)CC[C@]3(OC(=O)C(C)C)C[C@H]4CCC[C@@H]3C=C4c3ccccc3)nc12` (relative stereo) [Example 36A, rac-Isobutyric acid (1R*,5R*,6R*)-6-(2-{[3-(4-methoxy-1H-benzoimidazol-2-yl)-propyl]-methyl-amino}-ethyl)-8-phenyl-bicyclo[3.2.2]non-8-en-6-yl ester], 1.01 µM. Take `COc1cccc2[nH]c(CCCN(C)CC[C@]3(OC(=O)CC(F)(F)F)C[C@H]4CCC[C@@H]3C=C4c3ccccc3)nc12` (relative stereo) [Example 36B, rac-3,3,3-Trifluoro-propionic acid (1R*,5R*,6R*)-6-(2-{[3-(4-methoxy-1H-benzoimidazol-2-yl)-propyl]-methyl-amino}-ethyl)-8-phenyl-bicyclo[3.2.2]non-8-en-6-yl ester]: the IC50 was found to be 2.45 µM.

As to `COc1cccc2c1nc(CCCN(C)CC[C@]1(O)C[C@H]3CC[C@@H]1C=C3c1ccccc1)n2C` (relative stereo) [Example 37, rac-(1R*,2R*,4R*)-2-(2-{[3-(4-Methoxy-1-methyl-1H-benzoimidazol-2-yl)-propyl]-methyl-amino}-ethyl)-5-phenyl-bicyclo[2.2.2]oct-5-en-2-ol], the IC50 came out at 6.65 µM. As for `COc1cccc2c1nc(CCCN(C)CC[C@]1(OC(=O)C(C)C)C[C@H]3CC[C@@H]1C=C3c1ccccc1)n2C` (relative stereo) [Example 37A, rac-Isobutyric acid (1R*,2R*,4R*)-2-(2-{[3-(4-methoxy-1-methyl-1H-benzoimidazol-2-yl)-propyl]-methyl-amino}-ethyl)-5-phenyl-bicyclo[2.2.2]oct-5-en-2-yl ester], the IC50 came to 0.935 µM. As to `CCOc1ccc(CCN(CC)CC[C@]2(O)C[C@H]3CC[C@@H]2C=C3c2ccccc2)cc1OCC` (relative stereo) [Example 38, rac-(1R*,2R*,4R*)-2-(2-{[2-(3,4-Diethoxy-phenyl)-ethyl]-ethyl-amino}-ethyl)-5-phenyl-bicyclo[2.2.2]oct-5-en-2-ol], the half-inhibitory concentration (IC50) came out at 6.7 µM. For `CCOc1ccc(CCN(CC)CC[C@]2(OC(=O)C(C)C)C[C@H]3CC[C@@H]2C=C3c2ccccc2)cc1OCC` (relative stereo) [Example 38A, rac-Isobutyric acid (1R*,2R*,4R*)-2-(2-{[2-(3,4-diethoxy-phenyl)-ethyl]-ethyl-amino}-ethyl)-5-phenyl-bicyclo[2.2.2]oct-5-en-2-yl ester] the value was 2.51 µM; for `COc1ccc(CCCN(C)CC[C@]2(O)C[C@H]3CC[C@@H]2C=C3c2ccccc2)cc1OC` (relative stereo) [Example 39, rac-(1R*,2R*,4R*)-2-(2-{[3-(3,4-Dimethoxy-phenyl)-propyl]-methyl-amino}-ethyl)-5-phenyl-bicyclo[2.2.2]oct-5-en-2-ol], greater than 10 µM.

Turning to `COc1ccc(CCCN(C)CC[C@]2(OC(=O)C(C)C)C[C@H]3CC[C@@H]2C=C3c2ccccc2)cc1OC` (relative stereo) [Example 39A, rac-Isobutyric acid (1R*,2R*,4R*)-2-(2-{[3-(3,4-dimethoxy-phenyl)-propyl]-methyl-amino}-ethyl)-5-phenyl-bicyclo[2.2.2]oct-5-en-2-yl ester], the IC50 worked out at 7.49 µM. In the case of `CCOc1ccc(CCCN(C)CC[C@]2(O)C[C@H]3CC[C@@H]2C=C3c2ccccc2)cc1OCC` (relative stereo) [Example 40, rac-(1R*,2R*,4R*)-2-(2-{[3-(3,4-Diethoxy-phenyl)-propyl]-methyl-amino}-ethyl)-5-phenyl-bicyclo[2.2.2]oct-5-en-2-ol], the IC50 worked out at 3.33 µM.

In the case of `CCOc1ccc(CCCN(C)CC[C@]2(OC(=O)C(C)C)C[C@H]3CC[C@@H]2C=C3c2ccccc2)cc1OCC` (relative stereo) [Example 40A, rac-Isobutyric acid (1R*,2R*,4R*)-2-(2-{[3-(3,4-diethoxy-phenyl)-propyl]-methyl-amino}-ethyl)-5-phenyl-bicyclo[2.2.2]oct-5-en-2-yl ester], the IC50 came to 8.93 µM. On to `CN(CCCc1cnc2occc2c1)CC[C@]1(O)C[C@H]2CC[C@@H]1C=C2c1ccccc1` (relative stereo) [Example 41, rac-(1R*,2R*,4R*)-2-{2-[(3-Furo[2,3-b]pyridin-5-yl-propyl)-methyl-amino]-ethyl}-5-phenyl-bicyclo[2.2.2]oct-5-en-2-ol], for which the IC50 was greater than 10 µM.
